Laboratory results published in patent publication US11254668B2, “Pyrazolo[1,5-A]pyrazin-4-yl and related derivatives” (Pfizer Inc., priority 2017, dated 2022).
Read-outs that look alike come from different tables or passages of the source.

Legend:
Assay type in all cases: biochemical
[1] = target: TYK2 (Homo sapiens (Human), UniProt P29597); test: JAK Caliper Enzyme Assay at 1 mM ATP, TYK2
Description: (§1) Compounds of the invention were evaluated by in vitro methods to determine their respective ability to inhibit the JAK kinases (TYK2, JAK1, JAK2, JAK3).
(§2) The human JAK inhibitory activity was determined by using a microfluidic assay to monitor phosphorylation of a synthetic peptide by the recombinant human kinase domain of each of the four members of the JAK family, JAK1, JAK2, JAK3 and TYK2. […] Each assay condition was optimized for enzyme concentration and room temperature incubation time to obtain a conversion rate of 20% to 30% phosphorylated peptide product. Reactions were terminated by the addition of stop buffer containing EDTA. Utilizing the LabChip 3000 mobility shift technology (Caliper Life Science), each assay reaction was sampled to determine the level of phosphorylation. This technology is separation-based, allowing direct detection of fluorescently labeled substrates and products. Separations are controlled by a combination of vacuum pressure and electric field strength optimized for each peptide substrate.
(§3) JAK Caliper Enzyme Assay at 1mM ATP
(§4) Compounds were added to a 384-well plate.
(§5) The data was collected using the HTS Well Analyzer software from Caliper Life Sciences. The data output for data analysis is the percent product converted calculated on peak height (Equation 1). % product converted=100*((product)/(product+substrate)) Equation 1: […]
(§6) The percent effect at each compound concentration was calculated based on the positive and negative control well contained within each assay plate (Equation 2). […] The negative control wells contained DMSO alone (at the same concentration as the compound wells) that was used to set the baseline activity in the assay (i.e., uninhibited JAK1, JAK2, JAK3 or TYK2). % effect=100*([…](positive control-negative control)) Equation 2: […]
(§7) The percent effect was plotted against the compound concentration compound.

[2] = target: JAK1 (Homo sapiens (Human), UniProt P23458); test: JAK Caliper Enzyme Assay at 1 mM ATP, JAK1
Description: as §1, §2, §3, §4, §5, §6, §7

[3] = target: JAK2 (Homo sapiens (Human), UniProt O60674); test: JAK Caliper Enzyme Assay at 1 mM ATP, JAK2
Description: as §1, §2, §3, §4, §5, §6, §7

[4] = target: JAK3 (Homo sapiens (Human), UniProt P52333); test: JAK Caliper Enzyme Assay at 1 mM ATP, JAK3
Description: as §1, §2, §3, §4, §5, §6, §7

Sequence of JAK3 (P52333 822-1111): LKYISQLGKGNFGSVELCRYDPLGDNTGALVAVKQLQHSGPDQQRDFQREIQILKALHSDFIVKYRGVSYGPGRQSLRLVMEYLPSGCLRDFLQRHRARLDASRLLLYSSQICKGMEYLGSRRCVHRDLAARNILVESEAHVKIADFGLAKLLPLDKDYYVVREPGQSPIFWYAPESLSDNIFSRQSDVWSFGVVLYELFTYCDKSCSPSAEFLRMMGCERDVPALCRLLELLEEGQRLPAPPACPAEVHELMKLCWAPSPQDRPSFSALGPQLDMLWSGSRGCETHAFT
Sequence of JAK1 (P23458 875-1153): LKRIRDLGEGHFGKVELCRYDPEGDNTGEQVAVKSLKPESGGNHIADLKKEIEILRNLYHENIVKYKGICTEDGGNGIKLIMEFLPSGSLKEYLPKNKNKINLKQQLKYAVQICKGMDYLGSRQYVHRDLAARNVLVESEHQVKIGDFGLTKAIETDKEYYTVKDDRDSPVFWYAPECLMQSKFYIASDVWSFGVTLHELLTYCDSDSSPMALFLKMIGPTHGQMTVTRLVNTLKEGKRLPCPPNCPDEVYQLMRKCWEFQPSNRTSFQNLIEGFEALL
Sequence of JAK2 (O60674 849-1124): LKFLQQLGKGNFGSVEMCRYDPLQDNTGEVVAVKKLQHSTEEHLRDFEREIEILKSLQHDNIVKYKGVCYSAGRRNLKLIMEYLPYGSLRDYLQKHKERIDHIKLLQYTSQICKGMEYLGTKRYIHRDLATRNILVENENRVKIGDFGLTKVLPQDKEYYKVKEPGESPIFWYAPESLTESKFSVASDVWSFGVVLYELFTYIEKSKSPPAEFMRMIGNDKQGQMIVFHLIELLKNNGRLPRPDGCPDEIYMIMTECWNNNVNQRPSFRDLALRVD
Sequence of TYK2 (P29597 897-1176): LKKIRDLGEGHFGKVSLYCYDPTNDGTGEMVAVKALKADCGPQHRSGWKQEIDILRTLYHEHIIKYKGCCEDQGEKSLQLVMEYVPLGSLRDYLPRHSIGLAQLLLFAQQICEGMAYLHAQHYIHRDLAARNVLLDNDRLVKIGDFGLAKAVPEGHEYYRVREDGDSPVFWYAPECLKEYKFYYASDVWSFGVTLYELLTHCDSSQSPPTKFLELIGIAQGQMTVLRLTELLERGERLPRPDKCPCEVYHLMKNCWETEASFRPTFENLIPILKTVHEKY

Molecule | IC50 [1] [nM] | IC50 [2] [nM] | IC50 [3] [nM] | IC50 [4] [nM] | IC50 ([1]; JAK Caliper enzyme assay) [nM] | IC50 ([2]; JAK Caliper enzyme assay) [nM] | IC50 ([4]; JAK Caliper enzyme assay) [nM] | IC50 ([3]; JAK Caliper enzyme assay) [nM]
2-[3-{4-[7-(1-methyl-1H-pyrazol-4-yl)-1,6-naphthyridin-5-yl]-1H-pyrazol-1-yl}-1-(2,2,2-trifluoroethyl)azetidin-3- [Example 5] | 1110 | 2820 | 2950 | > 10000 | – | – | – | –
N#CCC1(n2cc(-c3nc(-c4cn[nH]c4)cc4ncccc34)cn2)CN(CC(F)(F)F)C1 [Example 1, [3-{4-[7-(1H-pyrazol-4-yl)-1,6-naphthyridin-5-yl]-1H-pyrazol-1-yl}-1-(2,2,2-trifluoroethyl)azetidin-3-yl]acetonitrile] | 15 | 35 | 39 | 7140 | – | – | – | –
N#CC[C@H]1C[C@](CC#N)(n2cc(-c3nc(-c4cn[nH]c4)cc4ncccc34)cn2)C1 [Example 2, 2,2′-(trans-1-{4-[7-(1H-pyrazol-4-yl)-1,6-naphthyridin-5-yl]-1H-pyrazol-1-yl}cyclobutane-1,3-diyl)diacetonitrile] | 50 | 86 | 127 | > 10000 | – | – | – | –
N#CCC1CC(CC#N)(n2cc(-c3nc(-c4cn[nH]c4)cc4ncccc34)cn2)C1 (stereo not drawn) [Example 3, 2,2′-(cis-1-{4-[7-(1H-pyrazol-4-yl)-1,6-naphthyridin-5-yl]-1H-pyrazol-1-yl}cyclobutane-1,3-diyl)diacetonitrile] | 14 | 37 | 26 | 5980 | – | – | – | –
Cn1cc(-c2cc3ncccc3c(-c3cnn(C4(CC#N)CN(CC(F)(F)F)C4)c3)n2)cn1 [Example 4, [3-{4-[7-(1-methyl-1H-pyrazol-4-yl)-1,6-naphthyridin-5-yl]-1H-pyrazol-1-yl}-1-(2,2,2-trifluoroethyl)azetidin-3-yl]acetonitrile] | 17 | 97 | 26 | 5170 | – | – | – | –
COc1nc(-c2cc3ncccc3c(-c3ccn([C@]4(CC#N)C[C@H](C#N)C4)n3)n2)ccc1N [Example 223, cis-3-{3-[7-(5-amino-6-methoxypyridin-2-yl)-1,6-naphthyridin-5-yl]-1H-pyrazol-1-yl}-3-(cyanomethyl)cyclobutanecarbonitrile] | 15 | 365 | – | > 10000 | – | – | – | –
N#CC[C@]1(n2ccc(-c3nc(-c4ccc(N)c(C(N)=O)n4)cc4ncccc34)n2)C[C@H](C#N)C1 [Example 224, 3-amino-6-(5-{1-[cis-3-cyano-1-(cyanomethyl)cyclobutyl]-1H-pyrazol-3-yl}-1,6-naphthyridin-7-yl)pyridine-2-carboxamide] | 45 | 1940 | – | > 10000 | – | – | – | –
N#CC[C@]1(n2ccc(-c3nc(-c4ccc(N)c(C(N)=O)n4)cc4ncccc34)n2)C[C@@H](C#N)C1 [Example 225, 3-amino-6-(5-{1-[trans-3-cyano-1-(cyanomethyl)cyclobutyl]-1H-pyrazol-3-yl}-1,6-naphthyridin-7-yl)pyridine-2-carboxamide] | 9 | 215 | – | > 10000 | – | – | – | –
N#CCC1(n2ccc(-c3nc(-c4ccnnc4)cc4ncccc34)n2)CN(CC(F)(F)F)C1 [Example 233, [3-{3-[7-(pyridazin-4-yl)-1,6-naphthyridin-5-yl]-1H-pyrazol-1-yl}-1-(2,2,2-trifluoroethyl)azetidin-3-yl]acetonitrile] | 347 | 9580 | – | > 10000 | – | – | – | –
CS(=O)(=O)Nc1ccc(-c2cc3ncccc3c(-c3ccn([C@]4(CC#N)C[C@@H](C#N)C4)n3)n2)cc1 [Example 256, N-[4-(5-{1-[cis-3-cyano-1-(cyanomethyl)cyclobutyl]-1H-pyrazol-3-yl}-1,6-naphthyridin-7-yl)phenyl]methanesulfonamide] | 11 | 12 | – | 454 | – | – | – | –
CS(=O)(=O)Nc1ccc(-c2cc3ncccc3c(-c3ccn([C@]4(CC#N)C[C@H](C#N)C4)n3)n2)cc1 [Example 257, N-[4-(5-{1-[trans-3-cyano-1-(cyanomethyl)cyclobutyl]-1H-pyrazol-3-yl}-1,6-naphthyridin-7-yl)phenyl]methanesulfonamide] | 20 | 110 | – | 6420 | – | – | – | –
CS(=O)(=O)N1CC(CC#N)(n2ncc(-c3cc(-c4cc[nH]n4)cc4ncccc34)n2)C1 [Example 298, [1-(methylsulfonyl)-3-{4-[7-(1H-pyrazol-3-yl)quinolin-5-yl]-2H-1,2,3-triazol-2-yl}azetidin-3-yl]acetonitrile] | 23 | 594 | – | > 10000 | – | – | – | –
N#CCC1(n2ncc(-c3cc(-c4cc[nH]n4)cc4ncccc34)n2)CN(S(N)(=O)=O)C1 [Example 300, 3-(cyanomethyl)-3-{4-[7-(1H-pyrazol-3-yl)quinolin-5-yl]-2H-1,2,3-triazol-2-yl}azetidine-1-sulfonamide] | 16 | 291 | – | 3320 | – | – | – | –
Cn1ncc(-c2cc(-c3cnn([C@]4(CC#N)C[C@@H](C#N)C4)n3)c3cccnc3c2)c1CO [Example 328, trans-3-(cyanomethyl)-3-(4-{7-[5-(hydroxymethyl)-1-methyl-1H-pyrazol-4-yl]quinolin-5-yl}-2H-1,2,3-triazol-2-yl)cyclobutanecarbonitrile] | 1290 | > 10000 | – | > 10000 | – | – | – | –
Cn1cc(-c2cc(-c3cnn([C@]4(CC#N)C[C@H](C#N)C4)n3)c3cccnc3c2)c(N)n1 [Example 332, cis-3-{4-[7-(3-amino-1-methyl-1H-pyrazol-4-yl)quinolin-5-yl]-2H-1,2,3-triazol-2-yl}-3-(cyanomethyl)cyclobutanecarbonitrile] | 16 | 1690 | – | > 10000 | – | – | – | –
Cn1cc(-c2cc(-c3cnn([C@]4(CC#N)C[C@@H](C#N)C4)n3)c3cccnc3c2)c(N)n1 [Example 333, trans-3-{4-[7-(3-amino-1-methyl-1H-pyrazol-4-yl)quinolin-5-yl]-2H-1,2,3-triazol-2-yl}-3-(cyanomethyl)cyclobutanecarbonitrile] | 31 | 5870 | – | > 10000 | – | – | – | –
Cn1ncc(-c2cc(-c3cnn([C@]4(CC#N)C[C@@H](C#N)C4)n3)c3cccnc3c2)c1C(N)=O [Example 335, 4-(5-{2-[trans-3-cyano-1-(cyanomethyl)cyclobutyl]-2H-1,2,3-triazol-4-yl}quinolin-7-yl)-1-methyl-1H-pyrazole-5-carboxamide] | 5270 | – | > 10000 | – | – | – | – | –
N#CC[C@]1(n2ncc(-c3cc(-c4cccc(C(N)=O)n4)cc4ncccc34)n2)C[C@H](C#N)C1 [Example 349, 6-(5-{2-[trans-3-cyano-1-(cyanomethyl)cyclobutyl]-2H-1,2,3-triazol-4-yl}quinolin-7-yl)pyridine-2-carboxamide] | 17 | 738 | – | > 10000 | – | – | – | –
N#CC[C@]1(n2ncc(-c3cc(-c4cccc(C(N)=O)n4)cc4ncccc34)n2)C[C@H](C#N)C1 [Example 350, 6-(5-{2-[cis-3-cyano-1-(cyanomethyl)cyclobutyl]-2H-1,2,3-triazol-4-yl}quinolin-7-yl)pyridine-2-carboxamide] | 7 | 97 | – | 2470 | – | – | – | –
N#CC[C@]1(n2ncc(-c3cc(-c4cnc(N)nc4)cc4ncccc34)n2)C[C@@H](C#N)C1 [Example 394, cis-3-{4-[7-(2-aminopyrimidin-5-yl)quinolin-5-yl]-2H-1,2,3-triazol-2-yl}-3-(cyanomethyl)cyclobutanecarbonitrile] | – | – | – | – | 1030 | 8560 | > 10000 | –
N#CC[C@]1(n2ncc(-c3cc(-c4cncc(N)n4)cc4ncccc34)n2)C[C@H](C#N)C1 [Example 397, trans-3-{4-[7-(6-aminopyrazin-2-yl)quinolin-5-yl]-2H-1,2,3-triazol-2-yl}-3-(cyanomethyl)cyclobutanecarbonitrile] | – | – | – | – | – | > 10000 | > 10000 | 8950
CS(=O)(=O)N1CC(CC#N)(n2ncc(-c3cc(-c4c[nH]c5nccc-5c4)cc4ncccc34)n2)C1 [Example 415, [1-(methylsulfonyl)-3-{4-[7-(7H-pyrrolo[2,3-b]pyridin-5-yl)quinolin-5-yl]-2H-1,2,3-triazol-2-yl}azetidin-3-yl]acetonitrile] | – | – | – | – | 1090 | > 10000 | > 10000 | –
COc1nc(-c2cc(-c3cnn([C@]4(CC#N)C[C@H](C#N)C4)c3)n3ccnc3c2)ccc1N [Example 471, cis-3-{4-[7-(5-amino-6-methoxypyridin-2-yl)imidazo[1,2-a]pyridin-5-yl]-1H-pyrazol-1-yl}-3-(cyanomethyl)cyclobutanecarbonitrile] | – | – | – | – | 33 | 631 | > 10000 | –
Cn1cc(-c2cc(-c3ccn(C4(CC#N)CN(CC(F)(F)F)C4)n3)n3ccnc3c2)cn1 [Example 472, [3-{3-[7-(1-methyl-1H-pyrazol-4-yl)imidazo[1,2-a]pyridin-5-yl]-1H-pyrazol-1-yl}-1-(2,2,2-trifluoroethyl)azetidin-3-yl]acetonitrile] | – | – | – | – | 5670 | > 10000 | > 10000 | –
